What was measured:
Type in all cases: in vivo, Sprague-Dawley rats
[1] = test system: DNBS-induced colitis model; assay: Microscopic (histological) damage score of colonic tissue in DNBS-induced colitis model; details: DNBS rats, 6 days; for histological damage in colonic tissues compared to DNBS-induced colitis model: test compound groups (3, 10, 30 mg/kg) oral
Experimental: (§1) The induction of colitis was performed according to the method in Antonioli L, et al. (Non Patent Literature 8). 15 mg of 2,4-dinitrobenzenesulfonic acid (DNBS) in 0.25 ml of 50% ethanol was rectally administered through a polyethylene PE-60 catheter inserted 8 cm proximal to the anus, during a short period of anesthesia by Isoflurane (manufactured by Abbott Laboratories). To the control rat, 0.25 ml of 50% ethanol was administered.
(§2) The DNBS-induced colitis model and the control rats were euthanized in a CO2 chamber. After death, mid-abdominal incision was performed, and the colon was excised, which was then opened in a longitudinal direction (longitudinal muscle direction), washed with sterile physiological saline, and split into two parts in the longitudinal direction.
Evaluation of microscopic damage and inflammation was performed with an optical microscope using a tissue section obtained from a specimen of the entire intestine and stained with hematoxylin/eosin. Evaluation of severity of enteritis was performed by scoring the microscopic damage (histological damage) of the samples. As described above, colonic tissues that had been excised and washed with physiological saline were used as the samples.
The scoring was performed according to the criteria determined by making a minor amendment on the criteria reported in Non Patent Literature 11 (Non Patent Literature 12). The microscopic scoring (scoring of histological damage) criteria for the colonic damage are as shown in the following (1) to (5) (Non Patent Literatures 8 to 10), and the total points in (1) to (5) are used as a score.
(1) Loss of mucosal structure (no loss of mucosal structure: 0 points and mild to severe loss of mucosal structure: 1 to 3 points)
(2) Cellular infiltration (no cellular infiltration: 0 points and mild to severe cellular infiltration: 1 to 3 points)
(3) Muscle thickening (no muscle thickening: 0 points and mild to severe muscle thickening: 1 to 3 points) (4) Crypt abscess (none: 0 points and present: 1 point)
(5) Reduction in goblet cells (not reduced: 0 points and reduced: 1 point) […]

caspase-1 = assay: Caspase-1 expression in colonic tissue (western blotting), DNBS-induced colitis model; details: DNBS rats; 10 mg/kg oral
Experimental: as §1
Sample preparation and a test method were performed by the same methods as those in Example 7.
Samples were prepared and a test was performed in the same manner as in Example 7, except that an anti-procaspase-1 antibody and an anti-caspase antibody (all ad1872, manufactured by Abcam plc., dilution 1: 1,000) were used as the antibodies, instead of the anti-occludin antibody.
Sample preparation and a test method were performed by the same methods as those in Example 8.

[2] = test system: DNBS-induced colitis model; assay: Change in body weight and spleen weight in DNBS-induced colitis model; details: DNBS rats; for change in body weights: 3, 10 and 30 mg/kg oral immediately after DNBS, 6 days; for spleen weights compared to DNBS-induced colitis model: test compound groups (3, 10, 30 mg/kg) oral
Experimental: Sprague-Dawley rats (body weights of 200 to 225 g) which were male albino rats were used as model animals. Three model animals were housed in one cage in a temperature-controlled environment at 22-24° C., 50-60% humidity, and a light cycle of 12 hours, were given ad libitum access to standard laboratory feed and tap water, and were not used for at least one week after being brought into the laboratory.
A model in which colitis was induced by 2,4-dinitrobenzenesulfonic acid (hereinafter, denoted as DNBS, manufactured by Sigma-Aldrich, Inc.) (in the present specification, referred to as a “DNBS-induced colitis model”) was prepared.
as §1
Food intake was monitored everyday since initiation of the drug therapy. Furthermore, body weights of the rats were measured every morning, and evidence of blood in diarrhea and a stool or rectal bleeding was examined during the experimental period.

[3] = test system: DNBS-induced colitis model; assay: Macroscopic damage score of colonic tissue in DNBS-induced colitis model; details: DNBS rats, 6 days
Experimental: as §1, §2
Evaluation was performed by scoring the macroscopic damage of the samples. As described above, colonic tissues that had been excised and washed with physiological saline were used as the samples.
The scoring was performed according to the criteria determined by making a minor amendment on the criteria reported in Non Patent Literature 11 (Non Patent Literature 12). […]
(4) Thickness (mm) of colonic tissue (colonic wall): 1 point was scored for 1 mm […]

occludin = assay: Occludin expression in colonic tissue (western blotting), DNBS-induced colitis model; details: DNBS rats; 10 mg/kg oral

SMILES | microscopic score compared to DNBS-induced colitis model ([1]; 10 and 30 mg/kg oral) | histological damage in colonic tissues compared to DNBS-induced colitis model [1] | caspase-1 expression in colon in which inflammation was induced (caspase-1) | change in body weights [2] | spleen weights compared to DNBS-induced colitis model [2] | macroscopic damage scores compared to DNBS-induced colitis model ([3]; 3, 10 and 30 mg/kg oral) | occludin expression in inflamed tissues compared to DNBS-induced colitis model (occludin) | macroscopic damage scores compared to DNBS-induced colitis model ([3]; 10 and 30 mg/kg oral)
O=C1CC(=O)N(c2ccc(NC(=O)c3ccccc3I)cc2)c2ccc3ccccc3c2N1 [Compound B48, 5-[4-(2-iodobenzoylamino)phenyl]-1H-naphtho[1,2-b][1,4]diazepine-2,4(3H,5H)-dione] | significant improvement | decreased in a dose-dependent manner | decreased | increase in body weights | significantly decreased | significant decrease | increased | 
O=C1CC(=O)N(c2cccc(-c3noc(=S)[nH]3)c2)c2ccc3ccccc3c2N1.[Na] [Compound A17, 5-[3-(5-thioxo-4H-[1,2,4]oxadiazol-3-yl)phenyl]-1H-naphtho[1,2-b][1,4]diazepine-2,4(3H,5H)-dione sodium salt] |  | not affected | cannot be decreased | increase in body weights | significantly decreased |  | increased | significant decrease

Reference: patent US20230149421A1, “MEDICAMENT FOR PREVENTING OR TREATING IRRITABLE BOWEL SYNDROME OR INFLAMMATORY BOWEL DISEASE” (priority 2020, published 2023)
